Laboratory results reported in US10597388B2, “Pyridazinone herbicides” (FMC CORPORATION, priority 2014, dated 2020).

How the values were obtained:
Type in all cases: in vivo
[1] = system: pigweed (Amaranthus retroflexus); assay: Test A greenhouse herbicide test, pre- and postemergence
Method in brief: (§1)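 Seeds sown in loam–sand blend got a preemergence directed soil spray of compound in non-phytotoxic solvent with surfactant. Postemergence treatment was given at 2–10 cm, one- to two-leaf stage. After ~10 d in greenhouse, injury was rated visually vs untreated controls, 0 (no effect) to 100 (complete control).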

[2] = system: ryegrass, Italian (Italian ryegrass, Lolium multiflorum); assay: as above
Method in brief: as §1

[3] = system: wheat (Triticum aestivum); assay: as above; conditions: Postemergence; for Plant response rating, Wheat: 125 g ai/ha, 0 to 100 scale where 0 is no effect and 100 is complete control; for Wheat plant response rating: 500 g ai/ha, 0 to 100 scale, 0 is no effect, 100 is complete control
Method in brief: as §1

[4] = system: blackgrass (Alopecurus myosuroides); assay: Test A greenhouse herbicide test, postemergence; conditions: for Plant response rating, Blackgrass: 125 g ai/ha, 0 to 100 scale where 0 is no effect and 100 is complete control; for Blackgrass plant response rating: 500 g ai/ha, 0 to 100 scale, 0 is no effect, 100 is complete control
Method in brief: (§2)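 Greenhouse postemergence test: formulated chemicals sprayed on one- to two-leaf plants (2 to 10 cm), grown in loam soil blended with sand. Injury assessed visually about 10 d later against untreated controls, scored 0 (no effect) to 100 (complete control).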

[5] = system: galium (catchweed bedstraw, Galium aparine); assay: Test A greenhouse herbicide test, postemergence; conditions: for Plant response rating, Galium: 125 g ai/ha, 0 to 100 scale where 0 is no effect and 100 is complete control; for Galium plant response rating: 500 g ai/ha, 0 to 100 scale, 0 is no effect, 100 is complete control
Method in brief: as §2

[6] = system: lambsquarters (Chenopodium album); assay: Test C greenhouse herbicide test, pre- and postemergence
Description: (§3) Seeds of plant species selected from blackgrass (Alopecurus myosuroides), ryegrass, Italian (Italian ryegrass, Lolium multiflorum), wheat (winter wheat, Triticum aestivum), galium (catchweed bedstraw, Galium aparine), corn (Zea mays), large crabgrass, large (large crabgrass, Digitaria sanguinalis), foxtail, giant (giant foxtail, Setaria faberii), johnsongrass (Sorghum halepense), lambsquarters (Chenopodium album), morningglory (Ipomoea coccinea), nutsedge, yellow (yellow nutsedge, Cyperus esculentus), pigweed (Amaranthus retroflexus), ragweed (common ragweed, Ambrosia elatior), soybean (Glycine max), barnyardgrass (Echinochloa crus-galli), oilseed rape (Brassica napus), waterhemp (common waterhemp, Amaranthus rudis), and velvetleaf (Abutilon theophrasti) were planted into a blend of loam soil and sand and treated preemergence with test chemicals formulated in a non-phytotoxic solvent mixture which included a surfactant.
(§4) At the same time, plants selected from these crop and weed species and also chickweed (common chickweed, Stellaria media), kochia (Kochia scoparia), and oat, wild (wild oat, Avena fatua), were planted in pots containing Redi-Earth® planting medium (Scotts Company, 14111 Scottslawn Road, Marysville, Ohio 43041) comprising spaghnum peat moss, vermiculite, wetting agent and starter nutrients and treated with postemergence applications of test chemicals formulated in the same manner. Plants ranged in height from 2 to 18 cm (1- to 4-leaf stage) for postemergence treatments. Treated plants and controls were maintained in a greenhouse for 13 to 15 d, after which time all species were compared to controls and visually evaluated. Plant response ratings, summarized in Table C, are based on a scale of 0 to 100 where 0 is no effect and 100 is complete control. A dash (-) response means no test result.

[7] = system: morningglory (Ipomoea coccinea); assay: as above
Description: as §3, §4

[8] = system: oilseed rape (Brassica napus); assay: as above
Description: as §3, §4

[9] = system: pigweed (Amaranthus retroflexus); assay: as above
Description: as §3, §4

[10] = system: ragweed (common ragweed, Ambrosia elatior); assay: as above
Description: as §3, §4

[11] = system: waterhemp (common waterhemp, Amaranthus rudis); assay: as above
Description: as §3, §4

[12] = Postemergence, 125 g ai/ha, 0 to 100 scale where 0 is no effect and 100 is complete control
[13] = Postemergence, 500 g ai/ha, 0 to 100 scale, 0 is no effect, 100 is complete control
[14] = Preemergence, 125 g ai/ha, 0 to 100 scale where 0 is no effect and 100 is complete control
[15] = Preemergence, 500 g ai/ha, 0 to 100 scale, 0 no effect, 100 complete control
[16] = Postemergence, 31 g ai/ha, 0 to 100 scale (0 no effect, 100 complete control)
[17] = Postemergence, 125 g ai/ha, scale 0 to 100, 0 is no effect, 100 is complete control
[18] = Postemergence, 250 g ai/ha, scale 0 to 100, 0 no effect, 100 complete control, 13 to 15 d
[19] = Preemergence, 31 g ai/ha, scale 0 to 100, 0 is no effect, 100 is complete control
[20] = Preemergence, 62 g ai/ha, scale 0 to 100, 0 is no effect, 100 is complete control
[21] = Preemergence, 125 g ai/ha, scale 0 to 100, 0 is no effect, 100 is complete control
[22] = Preemergence, 250 g ai/ha, scale 0 to 100, 0 no effect, 100 complete control
[23] = postemergence, 62 g ai/ha, scale 0 to 100, 0 no effect, 100 complete control

CCc1sc2c(C)cc(C)cc2c1-c1c(O)c(C)nn(C)c1=O [Compound 57]
60: Blackgrass plant response rating [4] | Oilseed Rape plant response rating [8, 22] | Pigweed plant response rating [9, 16] | Ragweed plant response rating [10, 16]
100: Plant response rating, Pigweed [1, 12] | Pigweed plant response rating [1, 13] | Pigweed plant response rating [1, 14] | Plant response rating, Pigweed [1, 15] | Plant response rating, Ryegrass, Italian [2, 15] | Plant response rating, Galium [5] | Galium plant response rating [5] | Plant response rating, Lambsquarters [6, 19] | Plant response rating, Lambsquarters [6, 20] | Plant response rating, Lambsquarters [6, 21] | Lambsquarters plant response rating [6, 22] | Plant response rating, Morningglory [7, 17] | Plant response rating, Morningglory [7, 18] | Plant response rating, Morningglory [7, 19] | Plant response rating, Morningglory [7, 20] | Plant response rating, Morningglory [7, 21] | Morningglory plant response rating [7, 22] | Morningglory plant response rating [7, 23] | Plant response rating, Pigweed [9, 18] | Plant response rating, Pigweed [9, 19] | Plant response rating, Pigweed [9, 20] | Plant response rating, Pigweed [9, 21] | Pigweed plant response rating [9, 22] | Plant response rating, Ragweed [10, 21] | Ragweed plant response rating [10, 22] | Plant response rating, Waterhemp [11, 18] | Plant response rating, Waterhemp [11, 21] | Waterhemp plant response rating [11, 22]
0: Plant response rating, Wheat [3] | Oilseed Rape plant response rating [8, 16] | Plant response rating, Oilseed Rape [8, 17] | Plant response rating, Oilseed Rape [8, 19] | Plant response rating, Oilseed Rape [8, 20] | Oilseed Rape plant response rating [8, 23]
5: Plant response rating, Oilseed Rape [8, 18]
65: Waterhemp plant response rating [11, 23]
98: Plant response rating, Waterhemp [11, 20]
90: Ryegrass, Italian plant response rating [2, 13] | Ryegrass, Italian plant response rating [2, 14] | Plant response rating, Lambsquarters [6, 18] | Ragweed plant response rating [10, 23] | Plant response rating, Waterhemp [11, 19]
30: Plant response rating, Blackgrass [4] | Plant response rating, Oilseed Rape [8, 21]
85: Plant response rating, Pigweed [9, 17] | Plant response rating, Ragweed [10, 17] | Plant response rating, Waterhemp [11, 17]
50: Waterhemp plant response rating [11, 16]
80: Pigweed plant response rating [9, 23]
10: Wheat plant response rating [3]
70: Plant response rating, Ryegrass, Italian [2, 12] | Lambsquarters plant response rating [6, 16] | Lambsquarters plant response rating [6, 23] | Plant response rating, Ragweed [10, 19]
95: Plant response rating, Lambsquarters [6, 17] | Morningglory plant response rating [7, 16] | Plant response rating, Ragweed [10, 18] | Plant response rating, Ragweed [10, 20]

Cc1ccc2sc(C)c(-c3c(OC(=O)OC(C)C)c(C)nn(C)c3=O)c2c1 [Compound 66]
5: Oilseed Rape plant response rating [8, 22]
60: Plant response rating, Blackgrass [4]
75: Plant response rating, Ragweed [10, 19]
90: Pigweed plant response rating [1, 13] | Plant response rating, Ryegrass, Italian [2, 12] | Ryegrass, Italian plant response rating [2, 14] | Plant response rating, Galium [5] | Galium plant response rating [5] | Lambsquarters plant response rating [6, 16] | Morningglory plant response rating [7, 16] | Morningglory plant response rating [7, 22] | Plant response rating, Ragweed [10, 17] | Plant response rating, Ragweed [10, 21] | Plant response rating, Waterhemp [11, 17] | Plant response rating, Waterhemp [11, 20] | Waterhemp plant response rating [11, 23]
100: Pigweed plant response rating [1, 14] | Plant response rating, Pigweed [1, 15] | Ryegrass, Italian plant response rating [2, 13] | Plant response rating, Ryegrass, Italian [2, 15] | Plant response rating, Lambsquarters [6, 17] | Plant response rating, Lambsquarters [6, 18] | Lambsquarters plant response rating [6, 23] | Plant response rating, Morningglory [7, 17] | Plant response rating, Morningglory [7, 18] | Plant response rating, Pigweed [9, 17] | Plant response rating, Pigweed [9, 18] | Plant response rating, Pigweed [9, 19] | Plant response rating, Pigweed [9, 20] | Plant response rating, Pigweed [9, 21] | Pigweed plant response rating [9, 22] | Plant response rating, Ragweed [10, 18] | Plant response rating, Waterhemp [11, 18] | Plant response rating, Waterhemp [11, 21] | Waterhemp plant response rating [11, 22]
0: Plant response rating, Wheat [3] | Wheat plant response rating [3] | Oilseed Rape plant response rating [8, 16] | Plant response rating, Oilseed Rape [8, 18] | Plant response rating, Oilseed Rape [8, 19] | Plant response rating, Oilseed Rape [8, 20] | Plant response rating, Oilseed Rape [8, 21]
85: Plant response rating, Lambsquarters [6, 20] | Plant response rating, Lambsquarters [6, 21] | Plant response rating, Morningglory [7, 20] | Ragweed plant response rating [10, 16] | Plant response rating, Ragweed [10, 20] | Ragweed plant response rating [10, 23] | Plant response rating, Waterhemp [11, 19]
10: Plant response rating, Oilseed Rape [8, 17] | Oilseed Rape plant response rating [8, 23]
80: Plant response rating, Pigweed [1, 12] | Blackgrass plant response rating [4] | Plant response rating, Lambsquarters [6, 19] | Plant response rating, Morningglory [7, 19] | Plant response rating, Morningglory [7, 21]
98: Lambsquarters plant response rating [6, 22] | Pigweed plant response rating [9, 23] | Waterhemp plant response rating [11, 16]
95: Morningglory plant response rating [7, 23] | Pigweed plant response rating [9, 16] | Ragweed plant response rating [10, 22]
